18 molecules from patent US20070197430A1, “Conjugates And Therapeutic Uses Thereof” (priority 2004, published 2007) can be followed below.

Peptide text beside a SMILES is read from it.

Sequences and labels used below:
B1: Peptide P (linear) Ac-…-NH2 (peptide)
peptide: Ac-IAIAQELRRIGDEFNA-NH2
B2: Peptide N (linear) Ac-…-NH2 (peptide)
peptide: Ac-IFIAQELRRIGDEFNA-NH2
B3: Peptide Q (linear) Ac-…-NH2 (peptide)
peptide: Ac-IRIAQELRRIGDEFNA-NH2
B4: Peptide S (linear) Ac-…-NH2 (peptide)
peptide: Ac-IWIAQELRRIGDEFAA-NH2
B5: Bmf peptide Ac-…-NH2 (peptide)
peptide: Ac-VQIARKLQAIADQFHR-NH2
B6: Peptide H (linear) Ac-…-NH2 (peptide)
peptide: Ac-IWIAQQLRRIGDQFNA-NH2
B7: Puma peptide Ac-…-NH2 (peptide)
peptide: Ac-REIGAQLRRMADDLNA-NH2

The first assay addresses GST tagged Bcl w delta C29 protein (UniProt Q92843). The assay is described as follows: competition assay; competitor: biotinylated Bim BH3 peptide.
Details: not given
Broadly, the IC50 is the concentration that gives 50% inhibition. The low end stands for inhibition by little substance, the high end for a need for much substance. “Peptide G (constrained) Ac-QAIAQZLRRIGDZFNA-NH2” displayed a 50% inhibitory concentration (IC50) of 2.4 nM. “Peptide T (linear) Ac-IWIAQELCitCitIGDEFNA-NH2” registered an IC50 of 20 nM. As for B1, the 50% inhibitory concentration (IC50) was found to be 42 nM. Still for that read-out and setting: in the case of B2 it was 11 nM; in that of B3, 17 nM. As for B4, the IC50 stood at 3.3 nM. As for B5, the IC50 amounted to 0.25 nM.

As to B6, the 50% inhibitory concentration (IC50) amounted to 3.3 nM. The molecule B7 came in with a concentration for half-maximal inhibition (IC50) of 52 nM.

Another assay addresses T1, Bcl-w ΔC29 (Homo sapiens, UniProt Q92843).
T1 sequence (Q92843 1-164 limits assumed): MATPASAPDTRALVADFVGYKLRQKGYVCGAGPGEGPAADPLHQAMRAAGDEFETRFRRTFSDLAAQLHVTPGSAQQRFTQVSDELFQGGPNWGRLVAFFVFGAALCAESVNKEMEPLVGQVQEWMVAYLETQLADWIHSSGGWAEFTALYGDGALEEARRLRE
The assay is described as follows: Alphascreen GST competition assay with biotinylated Bim BH3-26 peptide. The assay is classed as binding. The note with it: Examples 8 and 9.
For `CC[C@H](C)[C@H](NC(C)=O)C(=O)N[C@@H](Cc1c[nH]c2ccccc12)C(=O)N[C@@H](C)C(=O)N[C@@H](C)C(=O)N[C@@H](CCC(N)=O)C(=O)N[C@@H](CCC(=O)O)C(=O)N[C@@H](CC(C)C)C(=O)N[C@@H](CCCNC(=N)N)C(=O)N[C@@H](CCCNC(=N)N)C(=O)N[C@H](C(=O)NCC(=O)N[C@@H](CC(=O)O)C(=O)N[C@@H](CCC(=O)O)C(=O)N[C@@H](Cc1ccccc1)C(=O)N[C@@H](CC(N)=O)C(=O)N[C@@H](C)C(N)=O)[C@@H](C)CC` [Peptide I] (Ac-IWAAQELRRIGDEFNA-NH2), the “binding affinity for Bcl-w ΔC29 compared to the linear 16-mer, in words” value is “slight decrease in binding affinity”. Turning to `CC[C@H](C)[C@H](NC(C)=O)C(=O)N[C@@H](Cc1c[nH]c2ccccc12)C(=O)N[C@H](C(=O)N[C@@H](C)C(=O)N[C@@H](CCC(N)=O)C(=O)N[C@@H](CCC(=O)O)C(=O)N[C@@H](CC(C)C)C(=O)N[C@@H](CCCNC(=N)N)C(=O)N[C@@H](CCCNC(=N)N)C(=O)N[C@H](C(=O)NCC(=O)N[C@@H](CC(=O)O)C(=O)N[C@@H](CCC(=O)O)C(=O)N[C@@H](Cc1ccccc1)C(=O)N[C@@H](C)C(=O)N[C@@H](C)C(N)=O)[C@@H](C)CC)[C@@H](C)CC` [Peptide S] (Ac-IWIAQELRRIGDEFAA-NH2), the “binding affinity for Bcl-w ΔC29 compared to the linear 16-mer, in words” value is “only slight, if any, loss of binding affinity”.

Regarding `CC[C@H](C)[C@H](NC(C)=O)C(=O)N[C@@H](C)C(=O)N[C@H](C(=O)N[C@@H](C)C(=O)N[C@@H](CCC(N)=O)C(=O)N[C@@H](CCC(=O)O)C(=O)N[C@@H](CC(C)C)C(=O)N[C@@H](CCCNC(=N)N)C(=O)N[C@@H](CCCNC(=N)N)C(=O)N[C@H](C(=O)NCC(=O)N[C@@H](CC(=O)O)C(=O)N[C@@H](CCC(=O)O)C(=O)N[C@@H](Cc1ccccc1)C(=O)N[C@@H](CC(N)=O)C(=O)N[C@@H](C)C(N)=O)[C@@H](C)CC)[C@@H](C)CC` [P] (Ac-IAIAQELRRIGDEFNA-NH2), the “binding affinity for Bcl-w ΔC29 compared to the linear 16-mer, in words” value is given as “drop in binding”. Regarding `CC[C@H](C)[C@H](NC(C)=O)C(=O)N[C@@H](CCCNC(=N)N)C(=O)N[C@H](C(=O)N[C@@H](C)C(=O)N[C@@H](CCC(N)=O)C(=O)N[C@@H](CCC(=O)O)C(=O)N[C@@H](CC(C)C)C(=O)N[C@@H](CCCNC(=N)N)C(=O)N[C@@H](CCCNC(=N)N)C(=O)N[C@H](C(=O)NCC(=O)N[C@@H](CC(=O)O)C(=O)N[C@@H](CCC(=O)O)C(=O)N[C@@H](Cc1ccccc1)C(=O)N[C@@H](CC(N)=O)C(=O)N[C@@H](C)C(N)=O)[C@@H](C)CC)[C@@H](C)CC` [Q] (Ac-IRIAQELRRIGDEFNA-NH2), the “binding affinity for Bcl-w ΔC29 compared to the linear 16-mer, in words” value is “drop in binding”.

In the case of `CC[C@H](C)[C@H](NC(C)=O)C(=O)N[C@@H](Cc1ccccc1)C(=O)N[C@H](C(=O)N[C@@H](C)C(=O)N[C@@H](CCC(N)=O)C(=O)N[C@@H](CCC(=O)O)C(=O)N[C@@H](CC(C)C)C(=O)N[C@@H](CCCNC(=N)N)C(=O)N[C@@H](CCCNC(=N)N)C(=O)N[C@H](C(=O)NCC(=O)N[C@@H](CC(=O)O)C(=O)N[C@@H](CCC(=O)O)C(=O)N[C@@H](Cc1ccccc1)C(=O)N[C@@H](CC(N)=O)C(=O)N[C@@H](C)C(N)=O)[C@@H](C)CC)[C@@H](C)CC` [N] (Ac-IFIAQELRRIGDEFNA-NH2), the “binding affinity for Bcl-w ΔC29 compared to the linear 16-mer, in words” value is “drop in binding”.

The assay is the same for the next values; noted with them: relative to linear 16-mer.
`CC[C@H](C)[C@H](NC(C)=O)C(=O)N[C@@H](Cc1c[nH]c2ccccc12)C(=O)N[C@H](C(=O)N[C@@H](C)C(=O)N[C@@H](CCC(N)=O)C(=O)N[C@@H](CCC(=O)O)C(=O)N[C@@H](CC(C)C)C(=O)N[C@@H](CCCNC(=N)N)C(=O)N[C@@H](CCCNC(=N)N)C(=O)N[C@H](C(=O)NCC(=O)N[C@@H](CC(=O)O)C(=O)N[C@@H](CCC(=O)O)C(=O)N[C@@H](Cc1ccccc1)C(=O)N[C@@H](CC(N)=O)C(=O)N[C@@H](CC(N)=O)C(N)=O)[C@@H](C)CC)[C@@H](C)CC` [Peptide U] (Ac-IWIAQELRRIGDEFNN-NH2): the “decrease in binding affinity” value is given as “two-fold”.

Take `CC[C@H](C)[C@H](NC(C)=O)C(=O)N[C@@H](Cc1c[nH]c2ccccc12)C(=O)N[C@H](C(=O)N[C@@H](C)C(=O)N[C@@H](CCC(N)=O)C(=O)N[C@@H](CCC(=O)O)C(=O)N[C@@H](CC(C)C)C(=O)N[C@@H](CCCNC(=N)N)C(=O)N[C@@H](CCCNC(=N)N)C(=O)N[C@@H](C)C(=O)NCC(=O)N[C@@H](CC(=O)O)C(=O)N[C@@H](CCC(=O)O)C(=O)N[C@@H](Cc1ccccc1)C(=O)N[C@@H](CC(N)=O)C(=O)N[C@@H](C)C(N)=O)[C@@H](C)CC` [Peptide K] (Ac-IWIAQELRRAGDEFNA-NH2): the “decrease in binding affinity” value was 3 fold.

In the case of `CC[C@H](C)[C@H](NC(C)=O)C(=O)N[C@@H](Cc1c[nH]c2ccccc12)C(=O)N[C@@H](C)C(=O)N[C@@H](C)C(=O)N[C@@H](CCC(N)=O)C(=O)N[C@@H](CCC(=O)O)C(=O)N[C@@H](CC(C)C)C(=O)N[C@@H](CCCNC(=N)N)C(=O)N[C@@H](CCCNC(=N)N)C(=O)N[C@H](C(=O)NCC(=O)N[C@@H](CC(=O)O)C(=O)N[C@@H](CCC(=O)O)C(=O)N[C@@H](Cc1ccccc1)C(=O)N[C@@H](CC(N)=O)C(=O)N[C@@H](C)C(N)=O)[C@@H](C)CC` [Peptide I] (Ac-IWAAQELRRIGDEFNA-NH2), the “decrease in binding affinity” value was determined as 100 fold. In the case of `CC[C@H](C)[C@H](NC(C)=O)C(=O)N[C@@H](Cc1c[nH]c2ccccc12)C(=O)N[C@H](C(=O)N[C@@H](C)C(=O)N[C@@H](CCC(N)=O)C(=O)N[C@@H](CCC(=O)O)C(=O)N[C@@H](CC(C)C)C(=O)N[C@@H](CCCNC(=N)N)C(=O)N[C@@H](CCCNC(=N)N)C(=O)N[C@H](C(=O)NCC(=O)N[C@@H](CC(=O)O)C(=O)N[C@@H](CCC(=O)O)C(=O)N[C@@H](C)C(=O)N[C@@H](CC(N)=O)C(=O)N[C@@H](C)C(N)=O)[C@@H](C)CC)[C@@H](C)CC` [Peptide L] (Ac-IWIAQELRRIGDEANA-NH2), the “decrease in binding affinity” value was 1,000 fold. Turning to `CC[C@H](C)[C@H](NC(C)=O)C(=O)N[C@@H](Cc1c[nH]c2ccccc12)C(=O)N[C@H](C(=O)N[C@@H](C)C(=O)N[C@@H](CCC(N)=O)C(=O)N[C@@H](CCC(=O)O)C(=O)N[C@@H](C)C(=O)N[C@@H](CCCNC(=N)N)C(=O)N[C@@H](CCCNC(=N)N)C(=O)N[C@H](C(=O)NCC(=O)N[C@@H](CC(=O)O)C(=O)N[C@@H](CCC(=O)O)C(=O)N[C@@H](Cc1ccccc1)C(=O)N[C@@H](CC(N)=O)C(=O)N[C@@H](C)C(N)=O)[C@@H](C)CC)[C@@H](C)CC` [Peptide J] (Ac-IWIAQEARRIGDEFNA-NH2), the “decrease in binding affinity” value is given as “about 1000 fold”.
